Results published in ChEMBL document CHEMBL2151015, “Discovery of a potent, selective, and orally bioavailable acidic 11β-hydroxysteroid dehydrogenase type 1 (11β-HSD1) inhibitor: discovery of 2-[(3S)-1-[5-(cyclohexylcarbamoyl)-6-propylsulfanylpyridin-2-yl]-3-piperidyl]acetic acid (AZD4017)” (J Med Chem, 2012).
≈ marks a conversion by molar mass, not a printed value. Calls of active or inactive are those of the source. The calls are words filed in the database; no cut-off is given here.

Experiments:
[1] = Octanol-buffer partition coefficient, log D of the compound after 30 mins by shake flask method at pH 7.4; settings: octanol/buffer
[2] = Fraction unbound in rat plasma after 18 to 19 hrs by equilibrium dialysis; format: ADME, cell-free
[3] = Aqueous solubility of the compound after 24 hrs by LC-UV analysis at pH 7.4; format: physicochemical; settings: aqueous medium
[4] = Intrinsic clearance in rat hepatocytes assessed per 10^6 cells
[5] = Oral bioavailability in rat; format: ADME, organism-based; settings: in vivo
[6] = Fraction unbound in mouse plasma after 18 to 19 hrs by equilibrium dialysis; format: ADME, cell-free
[7] = Fraction unbound in dog plasma after 18 to 19 hrs by equilibrium dialysis; format: ADME, cell-free, Canis lupus familiaris
[8] = Fraction unbound in human plasma after 18 to 19 hrs by equilibrium dialysis; format: ADME, cell-free
[9] = Apparent permeability from apical to basal side of MDCK cells at 10 uM; format: ADME, cell-based, Canis lupus familiaris; settings: dog
[10] = Apparent permeability from basal to apical side of MDCK cells at 10 uM; format: ADME, cell-based, Canis lupus familiaris; settings: dog
CYP1A2 = CYP1A2 (Homo sapiens, UniProt P05177); assay: Inhibition of CYP1A2 at 10 uM; format: ADME
CYP2C9 = CYP2C9 (Homo sapiens, UniProt P11712); assay: Inhibition of CYP2C9 at 10 uM; format: ADME
Sequence of CYP2C9 (P11712 whole entry): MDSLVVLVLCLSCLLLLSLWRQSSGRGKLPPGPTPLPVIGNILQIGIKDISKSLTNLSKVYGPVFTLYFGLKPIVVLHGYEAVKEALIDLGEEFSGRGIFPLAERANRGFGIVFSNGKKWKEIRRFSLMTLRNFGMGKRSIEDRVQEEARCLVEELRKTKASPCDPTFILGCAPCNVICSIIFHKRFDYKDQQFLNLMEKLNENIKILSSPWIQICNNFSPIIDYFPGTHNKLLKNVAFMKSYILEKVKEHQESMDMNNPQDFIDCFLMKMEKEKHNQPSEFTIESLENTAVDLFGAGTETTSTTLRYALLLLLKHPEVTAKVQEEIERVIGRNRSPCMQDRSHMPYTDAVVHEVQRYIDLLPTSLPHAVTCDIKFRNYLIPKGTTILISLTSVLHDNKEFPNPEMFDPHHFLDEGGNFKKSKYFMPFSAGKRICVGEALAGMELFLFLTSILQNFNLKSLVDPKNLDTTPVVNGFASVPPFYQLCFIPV

CYP2D6 = CYP2D6 (Homo sapiens, UniProt P10635); assay: Inhibition of CYP2D6 at 10 uM; format: ADME
Sequence of CYP2D6 (P10635 whole entry): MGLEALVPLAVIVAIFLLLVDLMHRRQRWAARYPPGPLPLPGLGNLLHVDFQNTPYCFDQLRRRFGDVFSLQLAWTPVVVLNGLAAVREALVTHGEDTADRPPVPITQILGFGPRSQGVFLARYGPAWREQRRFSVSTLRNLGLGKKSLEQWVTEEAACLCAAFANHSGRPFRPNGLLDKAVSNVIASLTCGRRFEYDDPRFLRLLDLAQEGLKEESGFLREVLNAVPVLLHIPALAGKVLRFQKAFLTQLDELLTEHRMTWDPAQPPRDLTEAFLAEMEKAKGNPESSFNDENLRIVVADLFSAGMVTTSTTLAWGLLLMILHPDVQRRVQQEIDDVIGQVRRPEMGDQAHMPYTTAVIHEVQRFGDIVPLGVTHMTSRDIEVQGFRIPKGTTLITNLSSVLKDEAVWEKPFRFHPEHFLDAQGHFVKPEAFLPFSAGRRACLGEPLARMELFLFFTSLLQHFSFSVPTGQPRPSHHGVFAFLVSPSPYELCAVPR

CYP2C19 = CYP2C19 (Homo sapiens, UniProt P33261); assay: Inhibition of CYP2C19 at 10 uM; format: ADME
Sequence of CYP2C19 (P33261 whole entry): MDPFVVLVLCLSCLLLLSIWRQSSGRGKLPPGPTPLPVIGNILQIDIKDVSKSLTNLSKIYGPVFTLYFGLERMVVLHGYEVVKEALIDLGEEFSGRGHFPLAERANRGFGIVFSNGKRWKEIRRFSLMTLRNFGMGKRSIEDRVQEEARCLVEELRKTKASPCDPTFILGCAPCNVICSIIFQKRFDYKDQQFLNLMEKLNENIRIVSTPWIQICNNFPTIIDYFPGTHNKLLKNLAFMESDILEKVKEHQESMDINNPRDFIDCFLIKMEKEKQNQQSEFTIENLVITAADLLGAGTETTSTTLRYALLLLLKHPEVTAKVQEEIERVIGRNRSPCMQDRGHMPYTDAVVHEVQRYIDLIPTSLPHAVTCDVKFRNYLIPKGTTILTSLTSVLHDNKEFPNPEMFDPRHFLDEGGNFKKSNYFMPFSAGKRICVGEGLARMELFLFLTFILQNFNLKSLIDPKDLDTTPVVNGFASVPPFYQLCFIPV

CYP3A4 = CYP3A4 (Homo sapiens, UniProt P08684); assay: Inhibition of CYP3A4 at 10 uM; format: ADME
[11] = Plasma clearance in mouse at 1 to 3 mg/kg; format: ADME, organism-based; set-up: dose 1-3 mg/kg
[12] = Volume of distribution at steady state in mouse at 1 to 3 mg/kg; format: ADME, organism-based; set-up: dose 1-3 mg/kg; settings: in vivo, read-out: Vdss
[13] = Half life in mouse at 1 to 3 mg/kg, iv; format: ADME, organism-based; set-up: dose 1-3 mg/kg, route intravenous; settings: in vivo
[14] = Half life in mouse at 1 to 3 mg/kg, po; format: ADME, organism-based; set-up: dose 1-3 mg/kg, route oral; settings: in vivo
[15] = Oral bioavailability in mouse at 1 to 3 mg/kg; format: ADME, organism-based; settings: in vivo
[16] = Plasma clearance in rat at 1 to 3 mg/kg; format: ADME, organism-based; set-up: dose 1-3 mg/kg
[17] = Volume of distribution at steady state in rat at 1 to 3 mg/kg; format: ADME, organism-based; set-up: dose 1-3 mg/kg; settings: in vivo, read-out: Vdss
[18] = Half life in rat at 1 to 3 mg/kg, iv; format: ADME, organism-based; set-up: dose 1-3 mg/kg, route intravenous; settings: in vivo
[19] = Half life in rat at 1 to 3 mg/kg, po; format: ADME, organism-based; set-up: dose 1-3 mg/kg, route oral; settings: in vivo
[20] = Oral bioavailability in rat at 1 to 3 mg/kg; format: ADME, organism-based; settings: in vivo
[21] = Plasma clearance in dog at 1 to 3 mg/kg; format: ADME, organism-based, Canis lupus familiaris; set-up: dose 1-3 mg/kg
[22] = Volume of distribution at steady state in dog at 1 to 3 mg/kg; format: ADME, organism-based, Canis lupus familiaris; set-up: dose 1-3 mg/kg; settings: in vivo, read-out: Vdss
[23] = Half life in dog at 1 to 3 mg/kg, iv; format: ADME, organism-based, Canis lupus familiaris; set-up: dose 1-3 mg/kg, route intravenous; settings: in vivo
[24] = Half life in dog at 1 to 3 mg/kg, po; format: ADME, organism-based, Canis lupus familiaris; set-up: dose 1-3 mg/kg, route oral; settings: in vivo
[25] = Oral bioavailability in dog at 1 to 3 mg/kg; format: ADME, organism-based, Canis lupus familiaris; settings: in vivo
Hepatocyte [26] = assay: Metabolic stability in rat hepatocytes assessed as compound remaining; format: ADME, cell-based
Liver [27] = assay: Drug uptake in rat liver assessed as covalent binding measured per mg protein at 40 uCi/kg, po at 2 hrs; format: ADME, organism-based; settings: in vivo
Plasma = assay: Drug uptake in rat plasma assessed as covalent binding measured at 40 uCi/kg, po at 24 hrs; format: ADME, organism-based; settings: in vivo
Liver [28] = assay: Drug uptake in rat liver assessed as covalent binding measured per mg protein at 40 uCi/kg, po at 24 hrs; format: ADME, organism-based; settings: in vivo
[29] = molecular target: 11-beta-hydroxysteroid dehydrogenase type 2 (Homo sapiens, UniProt P80365); assay: Inhibition of recombinant 11betaHSD2 using cortisol as substrate after 40 mins by fluorescence spectrophotometry
Sequence of 11-beta-hydroxysteroid dehydrogenase type 2 (P80365 whole entry): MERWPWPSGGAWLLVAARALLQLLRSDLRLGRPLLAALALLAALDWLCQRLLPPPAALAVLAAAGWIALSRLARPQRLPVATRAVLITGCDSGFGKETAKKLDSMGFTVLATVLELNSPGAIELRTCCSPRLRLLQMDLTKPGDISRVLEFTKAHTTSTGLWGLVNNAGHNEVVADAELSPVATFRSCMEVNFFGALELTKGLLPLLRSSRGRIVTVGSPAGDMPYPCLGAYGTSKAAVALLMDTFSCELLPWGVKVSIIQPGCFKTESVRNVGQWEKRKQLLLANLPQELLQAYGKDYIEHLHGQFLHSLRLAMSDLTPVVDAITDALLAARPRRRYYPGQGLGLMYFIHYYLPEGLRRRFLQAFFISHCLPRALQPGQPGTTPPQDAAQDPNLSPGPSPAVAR

[30] = molecular target: 17-beta-hydroxysteroid dehydrogenase type 1 (Homo sapiens, UniProt P14061); assay: Inhibition of recombinant 17betaHSD1 using [3H]estrone as substrate after 20 mins by flow scintillation analysis
Sequence of 17-beta-hydroxysteroid dehydrogenase type 1 (P14061 whole entry): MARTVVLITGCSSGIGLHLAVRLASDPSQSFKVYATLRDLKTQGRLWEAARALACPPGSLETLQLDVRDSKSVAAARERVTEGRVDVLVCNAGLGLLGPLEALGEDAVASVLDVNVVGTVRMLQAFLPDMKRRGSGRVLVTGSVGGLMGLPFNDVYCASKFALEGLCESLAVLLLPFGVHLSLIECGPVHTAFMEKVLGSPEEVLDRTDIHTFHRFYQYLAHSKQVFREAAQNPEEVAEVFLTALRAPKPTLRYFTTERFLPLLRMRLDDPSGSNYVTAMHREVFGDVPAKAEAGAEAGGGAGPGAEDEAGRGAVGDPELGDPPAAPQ

[31] = molecular target: 17-beta-hydroxysteroid dehydrogenase type 3 (Homo sapiens, UniProt P37058); assay: Inhibition of recombinant 17betaHSD3 using [3H]androstenedione as substrate after 90 mins by flow scintillation analysis
[32] = molecular target: Glucocorticoid receptor (Homo sapiens) (UniProt P04150); assay: Activity at glucocorticoid receptor
Sequence of Glucocorticoid receptor (Homo sapiens) (P04150 whole entry): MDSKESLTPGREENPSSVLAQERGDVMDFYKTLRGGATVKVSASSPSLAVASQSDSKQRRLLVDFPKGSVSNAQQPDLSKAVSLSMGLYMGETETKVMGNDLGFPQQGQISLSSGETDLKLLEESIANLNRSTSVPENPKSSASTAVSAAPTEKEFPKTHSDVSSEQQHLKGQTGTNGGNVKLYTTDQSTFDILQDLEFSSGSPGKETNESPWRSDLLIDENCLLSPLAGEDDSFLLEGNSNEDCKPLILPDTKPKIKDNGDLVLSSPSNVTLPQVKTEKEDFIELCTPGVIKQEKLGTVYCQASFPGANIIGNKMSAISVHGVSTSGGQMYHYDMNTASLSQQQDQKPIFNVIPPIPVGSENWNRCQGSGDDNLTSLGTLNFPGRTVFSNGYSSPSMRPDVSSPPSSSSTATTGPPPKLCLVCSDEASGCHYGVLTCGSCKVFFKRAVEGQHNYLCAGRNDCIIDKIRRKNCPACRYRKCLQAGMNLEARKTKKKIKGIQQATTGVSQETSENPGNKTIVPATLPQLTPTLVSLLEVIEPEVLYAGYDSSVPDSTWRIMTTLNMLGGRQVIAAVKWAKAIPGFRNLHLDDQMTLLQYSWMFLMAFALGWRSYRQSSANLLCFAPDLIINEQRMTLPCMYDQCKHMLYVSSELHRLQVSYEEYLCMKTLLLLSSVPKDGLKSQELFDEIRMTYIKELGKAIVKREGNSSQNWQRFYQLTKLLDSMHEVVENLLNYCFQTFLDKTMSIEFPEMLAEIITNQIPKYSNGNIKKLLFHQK

[33] = molecular target: Mineralocorticoid receptor (Homo sapiens) (UniProt P08235); assay: Activity at mineralocorticoid receptor
Sequence of Mineralocorticoid receptor (Homo sapiens) (P08235 whole entry): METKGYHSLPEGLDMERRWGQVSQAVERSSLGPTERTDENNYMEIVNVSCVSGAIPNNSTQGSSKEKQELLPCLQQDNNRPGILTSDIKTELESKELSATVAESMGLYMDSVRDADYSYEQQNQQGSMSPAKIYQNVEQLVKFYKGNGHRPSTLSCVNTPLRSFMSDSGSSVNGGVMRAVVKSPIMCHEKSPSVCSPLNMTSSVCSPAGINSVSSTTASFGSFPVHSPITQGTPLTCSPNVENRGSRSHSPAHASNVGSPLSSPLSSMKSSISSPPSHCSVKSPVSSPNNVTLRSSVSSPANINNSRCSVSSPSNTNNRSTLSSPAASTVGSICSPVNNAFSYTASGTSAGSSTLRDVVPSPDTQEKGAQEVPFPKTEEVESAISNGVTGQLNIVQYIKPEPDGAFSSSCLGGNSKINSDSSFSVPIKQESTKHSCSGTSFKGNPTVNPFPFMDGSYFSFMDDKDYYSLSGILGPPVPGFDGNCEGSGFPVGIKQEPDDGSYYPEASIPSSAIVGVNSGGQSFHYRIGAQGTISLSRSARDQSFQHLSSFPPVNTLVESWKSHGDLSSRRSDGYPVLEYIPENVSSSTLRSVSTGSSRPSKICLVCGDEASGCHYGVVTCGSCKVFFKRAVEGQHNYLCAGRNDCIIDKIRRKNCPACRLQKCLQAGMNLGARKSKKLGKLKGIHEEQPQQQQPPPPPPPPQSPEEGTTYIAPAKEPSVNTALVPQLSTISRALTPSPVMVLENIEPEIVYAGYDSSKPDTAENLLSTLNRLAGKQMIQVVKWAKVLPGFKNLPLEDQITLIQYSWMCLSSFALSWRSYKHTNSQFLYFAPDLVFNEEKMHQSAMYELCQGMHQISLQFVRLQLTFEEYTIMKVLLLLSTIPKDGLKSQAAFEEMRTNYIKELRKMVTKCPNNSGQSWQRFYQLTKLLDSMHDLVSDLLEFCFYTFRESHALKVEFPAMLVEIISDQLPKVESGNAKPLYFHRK

Salmonella typhimurium = assay: Mutagenicity against Salmonella typhimurium by Ames test; format: toxicity, organism-based; settings: salmonella enterica subsp. enterica serovar typhimurium
L5178Y = assay: Mutagenicity against mouse L5178Y cells by mouse lymphoma assay; format: toxicity, cell-based
Cavia porcellus = organism: Cavia porcellus; assay: Toxicity against guinea pig by monophasic action potential assay; format: organism-based; settings: in vivo
[34] = Induction in cytochrome P450 in rat up to 1 month; format: ADME
[35] = molecular target: Type-2 angiotensin II receptor (Homo sapiens) (UniProt P50052); assay: Activity at AT2 receptor
Sequence of Type-2 angiotensin II receptor (Homo sapiens) (P50052 whole entry): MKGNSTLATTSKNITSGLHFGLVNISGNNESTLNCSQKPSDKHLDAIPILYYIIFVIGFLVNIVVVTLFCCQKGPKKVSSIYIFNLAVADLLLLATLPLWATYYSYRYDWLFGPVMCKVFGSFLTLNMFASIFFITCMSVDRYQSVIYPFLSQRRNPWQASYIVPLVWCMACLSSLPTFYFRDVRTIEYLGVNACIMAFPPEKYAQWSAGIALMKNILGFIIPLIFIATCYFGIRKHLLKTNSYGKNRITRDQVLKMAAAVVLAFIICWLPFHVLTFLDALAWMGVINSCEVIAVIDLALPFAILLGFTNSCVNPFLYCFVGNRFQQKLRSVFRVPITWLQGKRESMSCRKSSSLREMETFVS

[36] = molecular target: Gastrin/cholecystokinin type B receptor (Homo sapiens) (UniProt P32239); assay: Activity at CCK2 receptor
Sequence of Gastrin/cholecystokinin type B receptor (Homo sapiens) (P32239 whole entry): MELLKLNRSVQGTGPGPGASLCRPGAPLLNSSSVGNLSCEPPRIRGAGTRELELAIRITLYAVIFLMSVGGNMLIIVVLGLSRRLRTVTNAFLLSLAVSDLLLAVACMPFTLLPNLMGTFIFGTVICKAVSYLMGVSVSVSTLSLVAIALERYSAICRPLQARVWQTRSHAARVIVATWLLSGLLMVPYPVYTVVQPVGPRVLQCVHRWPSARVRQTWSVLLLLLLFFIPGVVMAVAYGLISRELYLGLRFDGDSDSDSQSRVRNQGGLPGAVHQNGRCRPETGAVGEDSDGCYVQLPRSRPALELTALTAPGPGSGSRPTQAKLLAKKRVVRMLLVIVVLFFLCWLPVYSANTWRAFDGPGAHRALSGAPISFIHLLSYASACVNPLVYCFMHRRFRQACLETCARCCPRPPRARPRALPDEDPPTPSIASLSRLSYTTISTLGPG

[37] = molecular target: 11-beta-hydroxysteroid dehydrogenase 1 (Mus musculus, UniProt P50172); assay: Inhibition of N-terminal His6-tagged full length mouse 11betaHSD1 expressed in baculovirus infected cells using cortisone as substrate after 25 mins by HTRF assay
[38] = molecular target: 11-beta-hydroxysteroid dehydrogenase 1 (Rattus norvegicus, UniProt P16232); assay: Inhibition of N-terminal His6-tagged full length rat 11betaHSD1 expressed in baculovirus infected cells using cortisone as substrate after 25 mins by HTRF assay
[39] = molecular target: 11-beta-hydroxysteroid dehydrogenase type 1 (Canis lupus familiaris, UniProt Q5XX84); assay: Inhibition of N-terminal His6-tagged full length dog 11betaHSD1 expressed in baculovirus infected cells using cortisone as substrate after 25 mins by HTRF assay
[40] = Inhibition of N-terminal His6-tagged full length cynomolgus monkey 11betaHSD1 expressed in baculovirus infected cells using cortisone as substrate after 25 mins by HTRF assay; set-up: species or system Macaca fascicularis
Mus musculus [41] = assay: Ex-vivo inhibition of 11betaHSD1 in C57Bl6J mouse epididymal adipose tissue using [3H]cortisone as substrate at 50 mg/kg, po after 1 hr by flow scintillation analysis; format: functional
Mus musculus [42] = assay: Ex-vivo inhibition of 11betaHSD1 in C57Bl6J mouse epididymal adipose tissue using [3H]cortisone as substrate at 1500 mg/kg, po after 1 hr by flow scintillation analysis; format: functional
Mus musculus [43] = assay: Ex-vivo inhibition of 11betaHSD1 in po dosed C57Bl6J mouse epididymal adipose tissue using [3H]cortisone as substrate after 1 hr by flow scintillation analysis; format: functional, organism-based
[44] = Metabolic stability in dog hepatocytes assessed as compound remaining; format: ADME, cell-based, Canis lupus familiaris, Hepatocyte
Hepatocyte [45] = assay: Metabolic stability in human hepatocytes assessed as compound remaining; format: ADME, cell-based
in vivo = settings: rat

Which logD at 0.5 h [1] does the source give for `CCCSc1nc(N2CCC[C@@H](CC(=O)O)C2)ccc1C(=O)NC1CCCCC1` [AZD-4017] here?
The logD at 0.5 h was 2.2.

What about the fraction unbound [2] of the same molecule?
The fraction unbound was 0.017.

What about the solubility at 24 h [3] of the same molecule?
The solubility at 24 h was 144 µM (≈ 60.4 µg/mL).

What about the hepatocyte CLint [4] of the same molecule?
Its hepatocyte CLint is less than 2 µL/min/1e6 cells.

What about the bioavailability [5] of the same molecule?
The bioavailability was greater than 100%.

And the fraction unbound [6]?
The fraction unbound was 0.029.

What about the fraction unbound [7] of the same molecule?
The fraction unbound was 0.023.

What about the fraction unbound [8] of the same molecule?
Its fraction unbound is 0.008.

And the Papp A→B at 10 µM [9]?
The Papp A→B at 10 µM was 29 ×10⁻⁶ cm/s.

What about the Papp B→A at 10 µM [10] of the same molecule?
The Papp B→A at 10 µM was 22 ×10⁻⁶ cm/s.

What about the inhibition at 10 µM (CYP1A2) of the same molecule?
Its inhibition at 10 µM is less than 25%.

And the inhibition at 10 µM (CYP2C9)?
The inhibition at 10 µM was less than 25%.

What about the inhibition at 10 µM (CYP2D6) of the same molecule?
The inhibition at 10 µM was less than 25%.

And the inhibition at 10 µM (CYP2C19)?
The inhibition at 10 µM was less than 25%.

What about the inhibition at 10 µM (CYP3A4) of the same molecule?
Its inhibition at 10 µM is less than 25%.

What about the clearance [11] of the same molecule?
The clearance was 16 mL/min/kg.

And the Vd [12]?
Its Vd is 4.2 L/kg.

And the half-life [13]?
Its half-life is 4.2 h.

And the half-life [14]?
Its half-life is 3.2 h.

And the bioavailability [15]?
Its bioavailability is greater than 100%.

What about the clearance [16] of the same molecule?
The clearance was 9 mL/min/kg.

What about the Vd [17] of the same molecule?
The Vd was 2.6 L/kg.

What about the half-life [18] of the same molecule?
Its half-life is 4.4 h.

What about the half-life [19] of the same molecule?
Its half-life is 4.7 h.

What about the bioavailability [20] of the same molecule?
The bioavailability was greater than 100%.

What about the clearance [21] of the same molecule?
Its clearance is 7 mL/min/kg.

And the Vd [22]?
The Vd was 0.9 L/kg.

And the half-life [23]?
Its half-life is 6.2 h.

And the half-life [24]?
Its half-life is 4.9 h.

What about the bioavailability [25] of the same molecule?
The bioavailability was 60%.

And the Stability (Hepatocyte [26])?
Its Stability is 66%.

And the Drug uptake (Liver [27])?
The Drug uptake was less than 25 pmol.

What about the Drug uptake (Plasma) of the same molecule?
The Drug uptake was “Not Active”.

What about the Drug uptake (Liver [28]) of the same molecule?
The Drug uptake was “Not Active”.

And the IC50 [29]?
The IC50 was greater than 30 µM.

And the IC50 [30]?
Its IC50 is greater than 30 µM.

What about the IC50 [31] of the same molecule?
The IC50 was greater than 30 µM.

What about the Activity [32] of the same molecule?
Its Activity is “inactive”.

And the Activity [33]?
Its Activity is “inactive”.

And the Activity (Salmonella typhimurium)?
Its Activity is “Non-toxic”.

And the Activity (L5178Y)?
The Activity was “Non-toxic”.

And the Activity (Cavia porcellus)?
Its Activity is “Non-toxic”.

What about the Activity [34] of the same molecule?
The Activity was “Non-toxic”.

What about the Activity [35] of the same molecule?
The Activity was “Active”.

And the Activity [36]?
Its Activity is “Active”.

And the IC50 [37]?
The IC50 was 0.75 µM.

And the IC50 [38]?
The IC50 was 4.06 µM.

What about the IC50 [39] of the same molecule?
Its IC50 is 3.77 µM.

And the IC50 [40]?
The IC50 was 0.029 µM.

And the inhibition in vivo at 50 mg/kg (Mus musculus [41])?
The inhibition in vivo at 50 mg/kg was 50%.

What about the Imax (Mus musculus [42]) of the same molecule?
The Imax was 70%.

And the inhibition (Mus musculus [43])?
Its inhibition is “Dose-dependent effect”.

And the Stability [44]?
Its Stability is 34%.

And the Stability (Hepatocyte [45])?
Its Stability is 93%.

And the clearance (in vivo)?
Its clearance is 9 mL/min/kg.
